Laboratory results from article PMC9412875, “^64Cu-DOTHA2-PSMA, a Novel PSMA PET Radiotracer for Prostate Cancer with a Long Imaging Time Window” (Pharmaceuticals, 2022).

Experiment: Plasma stability (ex vivo) and protein binding in mouse serum/plasma
Format: in vitro ADME
Settings: for 64Cu released from Proteins / 64Cu-DOTHA2-PSMA Released from Proteins: after 10% TFA; for proportion of free 64Cu: excess natCu-DOTHA2-PSMA
Procedure: Plasma stability studies were carried out by incubating ^64Cu-DOTHA2-PSMA (50 MBq in 250 μL PBS buffer) in 250 μL of mouse serum at 37 °C for up to 24 h. The plasma was then mixed twice with ethanol (1:1) to precipitate all the proteins. The samples were subjected to vortex mixing for 1 min and then centrifugation for 10 min at 7000 rpm. Plasma proteins were separated from the soluble component by ultracentrifugation and the radioactivity was assessed. The supernatant fraction was assayed by radio-TLC on C18 plates and by UPLC; free ^64Cu(OAc)2 and ^64Cu-DOTHA2-PSMA were used as standards. The radio-TLCs were eluted with 0.1 M sodium citrate buffer at pH 5.5 using an Instant Imager system (BioScan, DC, U.S.A.) for radiodetection. The precipitated proteins were again subjected to 10% TFA, vortexed for 2–3 min, and then centrifuged for 10 min at 7000 rpm. The separation and analysis for the supernatant and the proteins were performed in the same manner.
The protein binding ability was evaluated by incubating ^64Cu-DOTHA2-PSMA (100 MBq) in phosphate buffer (250 μL, pH 7) at 37 °C and fresh mouse serum (250 μL) and for 1 h, 4 h, and 24 h. Plasma proteins were precipitated by the addition of ethanol (1:1, v/v) to the plasma samples, followed by centrifugation at 7000 rpm for 5 min at room temperature and separation of the supernatant. This process was repeated three times with the same volume of ethanol, and the supernatants were pooled. The radioactivity content of the supernatant and the precipitated protein were measured in a dose calibrator to obtain the protein binding percentage.

[1] = ex vivo, mouse plasma, 100 equiv. natCu-DOTHA2-PSMA, 1 h
[2] = ex vivo, mouse plasma, 100 equiv. natCu-DOTHA2-PSMA, 4 h
[3] = ex vivo, mouse plasma, 100 equiv. natCu-DOTHA2-PSMA, 24 h

For `CN([O-])C(=O)CN1CCN(CC(=O)NCC2CCC(C(=O)NC(Cc3ccc4ccccc4c3)C(=O)NCCCCC(NC(=O)NC(CCC(=O)O)C(=O)O)C(=O)O)CC2)CCN(CC(=O)N(C)[O-])CCN(CC(=O)N(C)O)CC1.[64Cu+2]` (stereo not drawn) [^64Cu-DOTHA2-PSMA], the “demetallation or degradation in mouse serum (radio-UPLC, radio-TLC)” value (37 °C, up to 24 h) was “No major demetallation or degradation”, the “change of signal bound to plasma proteins on adding excess natCu-DOTHA2-PSMA” value (ex vivo, 4 h) was 1% and the “change of signal bound to plasma proteins on adding excess natCu-DOTHA2-PSMA” value (ex vivo, 24 h) was 6%. For the same compound, the “64Cu in the Supernatant” value (ex vivo, mouse plasma 37 °C, 1 h, % of total signal) was 0%, the “64Cu in the Supernatant” value (ex vivo, mouse plasma 37 °C, 4 h, % of total signal) was 1.98% and the “64Cu in the Supernatant” value (ex vivo, mouse plasma 37 °C, 24 h, % of total signal) was 1.28%. For the same compound, the “64Cu and 64Cu-DOTHA2-PSMA Bound to Plasma Proteins” value (shortened to “64Cu and 64Cu-DOTHA2-PSMA Bound”) [1] was 24%, the “64Cu in the Supernatant” value [1] was 0% and the “64Cu released from Proteins” value [1] was 0.82%. The “64Cu and 64Cu-DOTHA2-PSMA Bound” value [2] was 33%, the “64Cu in the Supernatant” value [2] was 3.35% and the “64Cu released from Proteins” value [2] was 0.84%. For the same compound, the “64Cu and 64Cu-DOTHA2-PSMA Bound” value [3] was 30%, the “64Cu in the Supernatant” value [3] was 5.60% and the “64Cu released from Proteins” value [3] was 2.14%. The “64Cu and 64Cu-DOTHA2-PSMA Bound” value (ex vivo, mouse plasma, 1 h) was 24%, the “signal attributed to free 64Cu overall (supernatant and precipitate)” value (ex vivo, mouse plasma, 1 h) was 0.79% and the “64Cu-DOTHA2-PSMA Released from Proteins” value (ex vivo, mouse plasma, 1 h) was 15%. For the same compound, the “64Cu released from Proteins” value (ex vivo, mouse plasma, 1 h, % of total signal) was 0.79%, the “64Cu and 64Cu-DOTHA2-PSMA Bound” value (ex vivo, mouse plasma, 4 h) was 34% and the “signal attributed to free 64Cu overall (supernatant and precipitate)” value (ex vivo, mouse plasma, 4 h) was 2.62%. For the same compound, the “64Cu-DOTHA2-PSMA Released from Proteins” value (ex vivo, mouse plasma, 4 h) was 21%, the “64Cu released from Proteins” value (ex vivo, mouse plasma, 4 h, % of total signal) was 0.64% and the “64Cu and 64Cu-DOTHA2-PSMA Bound” value (ex vivo, mouse plasma, 24 h) was 36%. For the same compound, the “free 64Cu, share of the plasma supernatant signal (UPLC)” value (ex vivo, mouse plasma, 24 h) was “less than 3%”, the “64Cu-DOTHA2-PSMA Released from Proteins” value (ex vivo, mouse plasma, 24 h) was 21% and the “64Cu released from Proteins” value (ex vivo, mouse plasma, 24 h, % of total signal) was 0.65%. The “proportion of free 64Cu” value (ex vivo, mouse plasma, 1 h) was 0.82%, the “proportion of free 64Cu” value (ex vivo, mouse plasma, 4 h) was 4.19% and the “proportion of free 64Cu” value (ex vivo, mouse plasma, 24 h) was 7.75%.
